Experimental data reported in patent US8426447B2, “Spiro-tricyclic ring compounds as beta-secretase modulators and methods of use” (Amgen Inc., priority 2008, dated 2013).

Legend:
BACE1 [1] = target: T1, BACE1 (Homo sapiens, UniProt P56817); assay: In Vitro Enzymatic BACE FRET (Fluorescence Resonance Energy Transfer) Assay; assay type: biochemical; conditions: read-out: BACE1 FRET assay
Method in brief: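 Buffer: 0.05 M acetate, pH 4.2, 10% DMSO final, 100 uM genapol. Start: FRET substrate 50 nM. Incubation 1 h. Stop: Tris to neutral pH. Read: fluorescence.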

BACE1 [2] = target: T1, BACE1; assay: In Vitro BACE Cell-based Assay (HEK cell assay): Aβ40 in conditioned medium of cells stably expressing Amyloid Precursor Protein, sandwich ELISA; conditions: read-out: HEK cell assay
Method in brief: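 First, APP-stable cells grow 24 h at 37° C., 5% CO2. Next, test compounds are added for 24 h (10 doses, 0.1% DMSO). Finally, medium Aβ40 is determined by pAb40/6E10 sandwich ELISA with Europium TRF, and IC50 is calculated.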

T1 sequence (P56817 46-501, species assumed): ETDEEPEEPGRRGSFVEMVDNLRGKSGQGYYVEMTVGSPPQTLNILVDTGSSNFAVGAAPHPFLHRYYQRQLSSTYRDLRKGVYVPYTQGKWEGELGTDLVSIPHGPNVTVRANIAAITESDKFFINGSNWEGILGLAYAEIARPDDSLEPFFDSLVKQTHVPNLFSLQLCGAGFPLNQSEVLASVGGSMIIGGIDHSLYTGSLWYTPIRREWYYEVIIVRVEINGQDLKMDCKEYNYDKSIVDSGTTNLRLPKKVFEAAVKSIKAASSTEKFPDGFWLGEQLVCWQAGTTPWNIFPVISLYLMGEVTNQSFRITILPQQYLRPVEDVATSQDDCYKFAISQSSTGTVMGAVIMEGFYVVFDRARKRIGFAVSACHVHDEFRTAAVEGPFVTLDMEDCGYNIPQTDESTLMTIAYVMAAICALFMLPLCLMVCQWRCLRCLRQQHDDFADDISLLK

SMILES | IC50 (BACE1 [1]; Table IV, class symbols) | IC50 (BACE1 [2]; Table IV, class symbols) | IC50 (BACE1 [1]) | IC50 (BACE1 [2])
NC1=N[C@]2(CO1)c1cc(-c3cccnc3)ccc1Oc1c(F)cc(C3=CCOCC3)cc12 [compound 644] | 100 to 1000 nM | 1000 to 5000 nM |  | 
COC(C)(C)C#Cc1cc(F)c2c(c1)[C@@]1(COC(N)=N1)c1cc(-c3ccc(F)nc3)ccc1O2 [compound 645] | 100 to 1000 nM | 1000 to 5000 nM |  | 
CC(C)(C)COc1ccc2c(c1)[C@]1(COC(N)=N1)c1cc(-c3cccnn3)ccc1O2 [compound 649] | < 100 nM | 100 to 1000 nM |  | 
COc1ccc2c(c1)[C@]1(COC(N)=N1)c1cc(NC(=O)C(F)(F)F)ccc1O2 [compound 651] | 100 to 1000 nM | 1000 to 5000 nM |  | 
COc1ccc2c(c1)[C@]1(COC(N)=N1)c1cc(NC(=O)c3ccc(Cl)cn3)ccc1O2 [compound 652, N-((4S)-2-amino-7′-methoxyspiro[1,3-oxazole-4,9′-xanthen]-2′-yl)-5-chloro-2-pyridinecarboxamide] | < 100 nM | 100 to 1000 nM |  | 
CC(C)(C)C#Cc1cnc2c(c1)[C@]1(COC(N)=N1)c1cc(-c3ccnnc3)ccc1O2 [compound 653] | < 100 nM | 100 to 1000 nM |  | 
CC(C)(C)C#Cc1cnc2c(c1)[C@]1(COC(N)=N1)c1cc(-c3cnccn3)ccc1O2 [compound 654] | < 100 nM | < 100 nM |  | 
CC(C)(C)COc1ccc2c(c1)[C@]1(COC(N)=N1)c1ccccc1O2 [compound 655] | 1000 to 5000 nM | > 5000 nM |  | 
CC(C)(C)COc1ccc2c(c1)[C@]1(COC(N)=N1)c1cc(C3CCCCO3)ccc1O2 (some centres unmarked) [compound 656] | < 100 nM | 100 to 1000 nM |  | 
CC(C)(O)Cc1ccc2c(c1)[C@]1(COC(N)=N1)c1cc(-c3cccnc3)ccc1O2 [compound 659] | 100 to 1000 nM | 100 to 1000 nM |  | 
NC1=N[C@]2(CO1)c1ccccc1Oc1ncc(-c3cncnc3)cc12 [compound 661] | 100 to 1000 nM | 100 to 1000 nM |  | 
NC1=N[C@@]2(CO1)c1cc(-c3cccnc3)ccc1Oc1ncc(C3=CCOCC3)cc12 [compound 664] |  |  | < 100 nM | < 100 nM
CC(C)(C)COc1ccc2c(c1)[C@@]1(COC(N)=N1)c1ccccc1O2 [compound 665] |  |  | 100 to 1000 nM | 1000 to 5000 nM
NC1=N[C@@]2(CO1)c1cc(-c3cccnc3)ccc1Oc1ccc(-c3nccs3)cc12 [compound 666] |  |  | < 100 nM | < 100 nM
COc1ccc2c(c1)[C@@]1(COC(N)=N1)c1cc(-c3cncnc3)cnc1O2 [compound 669] |  |  | 1000 to 5000 nM | 1000 to 5000 nM
NC1=N[C@@]2(CO1)c1cc(-c3cccnc3)ccc1Oc1ccc(-c3cscn3)cc12 [compound 671] |  |  | < 100 nM | < 100 nM
NC1=N[C@@]2(CO1)c1cc(-c3cccnc3)ccc1Oc1ccc(-c3ccsc3)cc12 [compound 672] |  |  | < 100 nM | < 100 nM
COC(C)(C)C#Cc1cc(F)c2c(c1)[C@@]1(COC(N)=N1)c1cc(-c3cncnc3)ccc1O2 [compound 674] |  |  | 100 to 1000 nM | 1000 to 5000 nM
Cc1nc(-c2ccc3c(c2)[C@]2(COC(N)=N2)c2cc(-c4cccnc4)ccc2O3)cs1 [compound 679] |  |  | < 100 nM | < 100 nM
COC(C)(C)C#Cc1cnc2c(c1)[C@@]1(COC(N)=N1)c1cc(-c3ccnnc3)ccc1O2 [compound 681] |  |  | 1000 to 5000 nM | > 5000 nM
NC1=N[C@@]2(CO1)c1cc(Br)ccc1Oc1ccc(C#CC3(O)COC3)cc12 [compound 682] |  |  | 1000 to 5000 nM | > 5000 nM
NC1=N[C@]2(CO1)c1cc(C#CC3(O)COC3)ccc1Oc1ccc(-c3cccnc3)cc12 [compound 685] |  |  | < 100 nM | < 100 nM
CC1(C)CC(c2ccc3c(c2)[C@]2(COC(N)=N2)c2cc(-c4cncnc4)ccc2O3)=CCO1 [compound 688] |  |  | < 100 nM | < 100 nM
COC(C)(C)C#Cc1cnc2c(c1)[C@@]1(COC(N)=N1)c1cc(-c3ccncc3)ccc1O2 [compound 692] |  |  | > 5000 nM | > 5000 nM
Cc1cc(-c2ccc3c(c2)[C@]2(COC(N)=N2)c2cc(-c4cccnc4)ccc2O3)on1 [compound 693] |  |  | < 100 nM | < 100 nM

More lines, now with the values ahead:

IC50 (BACE1 [1]; Table IV, class symbols) | IC50 (BACE1 [2]; Table IV, class symbols) | IC50 (BACE1 [1]) | IC50 (BACE1 [2]) | SMILES
< 100 nM | < 100 nM |  |  | COC(C)(C)C#Cc1cc(F)c2c(c1)[C@]1(COC(N)=N1)c1cc(-c3ccc(F)nc3)ccc1O2 [compound 646]
< 100 nM | < 100 nM |  |  | CC(C)(O)C#Cc1cnc2c(c1)[C@]1(COC(N)=N1)c1cc(-c3ccccc3)ccc1O2 [compound 647]
1000 to 5000 nM | 1000 to 5000 nM |  |  | NC1=NC2(CO1)c1cnccc1Oc1ccc(-c3cccnc3)cc12 (centres unmarked) [compound 648]
< 100 nM | 100 to 1000 nM |  |  | NC1=N[C@]2(CO1)c1cc(C(=O)CCCO)ccc1Oc1ccc(-c3cccnc3)cc12 [compound 650]
< 100 nM | 100 to 1000 nM |  |  | CCCNC(=O)c1ccc2c(c1)[C@@]1(COC(N)=N1)c1cc(OCC(C)(C)C)ccc1O2 [compound 657]
100 to 1000 nM | 100 to 1000 nM |  |  | CC(=O)Cc1ccc2c(c1)[C@]1(COC(N)=N1)c1cc(-c3cccnc3)ccc1O2 [compound 658]
< 100 nM | < 100 nM |  |  | NC1=N[C@@]2(CO1)c1cc(-c3cccnc3)ccc1Oc1ccc(-c3cncs3)cc12 [compound 660]
 |  | 100 to 1000 nM | 100 to 1000 nM | CCOc1ccc(-c2cnc3c(c2)[C@]2(COC(N)=N2)c2cc(OC)ccc2O3)cn1 [compound 667]
 |  | 100 to 1000 nM | 100 to 1000 nM | COc1ccc2c(c1)[C@@]1(COC(N)=N1)c1cc(-c3ccc(OCC4CC4)nc3)cnc1O2 [compound 668]
 |  | 100 to 1000 nM | 1000 to 5000 nM | COc1ccc2c(c1)[C@@]1(COC(N)=N1)c1cc(-c3cccnc3)cnc1O2 [compound 670]
 |  | 100 to 1000 nM | 1000 to 5000 nM | NC1=N[C@]2(CO1)c1ccncc1Oc1ccc(-c3cccnc3)cc12 [compound 675]
 |  | 100 to 1000 nM | 1000 to 5000 nM | NC1=N[C@@]2(CO1)c1cc(-c3cccnc3)ccc1Oc1cnc(Cl)cc12 [compound 676]
 |  | < 100 nM | 100 to 1000 nM | CC1(C)CC1c1cc2c(cn1)Oc1ccc(-c3cccnc3)cc1[C@]21COC(N)=N1 (some centres unmarked) [compound 677]
 |  | < 100 nM | 100 to 1000 nM | NC1=N[C@]2(CO1)c1cc(-c3cccnc3)ccc1Oc1cnc(C3CC3)cc12 [compound 678]
 |  | > 5000 nM | > 5000 nM | COc1ccc2c(c1)[C@@]1(COC(N)=N1)c1cc(Br)cnc1O2 [compound 680]
 |  | < 100 nM | < 100 nM | N#Cc1ccc(-c2ccc3c(c2)[C@@]2(COC(N)=N2)c2cc(-c4cccnc4)ccc2O3)cn1 [compound 683]
 |  | 100 to 1000 nM | 100 to 1000 nM | NC1=N[C@]2(CO1)c1ccccc1Oc1ccc(-c3cccnc3)cc12 [compound 684]
 |  | 100 to 1000 nM | 100 to 1000 nM | NC1=N[C@]2(CO1)c1cc(Br)ccc1Oc1ccc(-c3cncnc3)cc12 [compound 686]
 |  | 1000 to 5000 nM | > 5000 nM | COC(C)(C)C#Cc1cnc2c(c1)[C@]1(COC(N)=N1)c1cc(-c3ccnc(F)c3)ccc1O2 [compound 687]
 |  | 1000 to 5000 nM | > 5000 nM | NC1=N[C@]2(CO1)c1cc(-c3cccc(F)c3)ccc1Oc1ncc(C3=CCOCC3)cc12 [compound 690]
 |  | 1000 to 5000 nM | 1000 to 5000 nM | NC1=N[C@]2(CO1)c1cc(-c3ccc(F)cc3)ccc1Oc1ncc(C3=CCOCC3)cc12 [compound 691]
